According to ChEMBL document CHEMBL1132242, “Stereoselective characterization of the 1,4-dihydropyridine binding site at L-type calcium channels in the resting state and the opened/inactivated state” (J Med Chem, 1999):
Several values for one entry are separate records, joined by “and”; a condition that tells them apart may be missing. Equal entries are not always repeated.

Columns and labels:
[1] = target: T1, Voltage-gated L-type calcium channel (Homo sapiens, UniProt Q13936+Q13698+Q01668+O60840); assay: Evaluated for the free energies of binding (delta G) (in the resting state (rs) of voltage-gated L-type [Ca2+] channel (VGCCs)); type: protein assay
[2] = target: T1, Voltage-gated L-type calcium channel; assay: Free energy of binding (delta G) for inactivated state (is) of voltage-gated L-type [Ca2+] channel(VGCCs); type: protein assay
[3] = target: T1, Voltage-gated L-type calcium channel; assay: Difference in free energies of binding (delta G) in the Resting state (rs) and inactivated state (is) of voltage-gated L-type [Ca2+] channel(VGCCs); type: protein assay
[4] = target: T1, Voltage-gated L-type calcium channel; assay: Free energies of binding (delta G) in the Resting state (rs) of voltage-gated L-type [Ca2+] channel(VGCCs); type: protein assay
[5] = target: T1, Voltage-gated L-type calcium channel; assay: Free energies of binding(delta G)in inactivated state (is) of voltage-gated L-type [Ca2+] channel(VGCCs); type: protein assay

Row | SMILES | Delta Gsolv | Binding energy [1] | Binding energy [2] | Binding energy [3] | Binding energy [5] | Binding energy [4]
1 | CC1=C([N+](=O)[O-])C(c2ccccc2C(F)(F)F)C([N+](=O)[O-])=C(C)N1 | -17.275 kcal/mol | -8.256 kcal/M | -9.11 kcal/M | -0.85 kcal/M | – | –
2 | COC(=O)C1=C(C)N=C(C)/C(=C(\O)OC)C1c1cccc(OC)c1 (stereo in doubt; form 2) | -9.756 kcal/mol | -7.819 kcal/M | -8.461 kcal/M | – | – | –
3 | COC(=O)C1=C(C)N=C(C)/C(=C(\O)OC)C1c1ccc(C)cc1 (stereo not drawn) | -8.19 kcal/mol | -9.79 kcal/M | – | – | – | –
4 | COC(=O)C1=C(C)N=C(C)/C(=C(\O)OC)C1c1cccc(C#N)c1 (stereo in doubt; form 1) | -10.743 kcal/mol | -9.71 kcal/M | -12.108 kcal/M | – | – | –
5 | CC1=CC(c2ccccc2C(F)(F)F)C([N+](=O)[O-])=C(C)N1 (stereo in doubt; form 2) | -10.33 kcal/mol | -7.36 kcal/mol | -7.74 kcal/M | -0.38 kcal/M | – | –
6 | COC(=O)C1=C(C)N=C(C)/C(=C(\O)OC)C1c1cccc(OC)c1 (stereo in doubt; form 1) | -9.847 kcal/mol | -9.916 kcal/M | – | – | – | –
7 | COC(=O)C1=C(C)N=C(C)/C(=C(\O)OC)C1c1c(F)c(F)c(F)c(F)c1F (stereo not drawn) | -9.442 kcal/mol | -14.145 kcal/M | – | – | – | –
8 | COC(=O)C1=C(C)NC(C)=C([N+](=O)[O-])C1c1ccccc1C(F)(F)F (stereo in doubt; form 1) | -13.929 kcal/mol | -8.8 kcal/M | -10.296 kcal/M | -1.5 kcal/M | – | –
9 | COC(=O)C1=C(C)NC(C)=C(C(=O)OC)C1c1ccccc1[N+](=O)[O-] [NIFEDIPINE] | -14.117 kcal/mol and -14.198 kcal/mol | -12.385 kcal/M | -13.184 kcal/M | – | – | -10.502 kcal/M
10 | COC(=O)C1=C(C)NC(C)=C([N+](=O)[O-])C1c1ccccc1C(F)(F)F (stereo in doubt; form 2) | -14.15 kcal/mol | -9.7 kcal/M | -10.641 kcal/M | -0.94 kcal/M | – | –
11 | COC(=O)C1=C(C)N=C(C)/C(=C(\O)OC)C1c1ccc(Cl)cc1 (stereo in doubt; form 2) | -8.79 kcal/mol | -7.666 kcal/M | – | – | – | –
12 | COC(=O)C1=C(C)NC(C)=C(C(=O)OC)C1c1ccccc1 | -8.706 kcal/mol and -9.458 kcal/mol | -8.58 kcal/M and -10.707 kcal/M | -10.387 kcal/M | – | – | –
13 | CC1=CC(c2ccccc2C(F)(F)F)C([N+](=O)[O-])=C(C)N1 (stereo in doubt; form 1) | -10.313 kcal/mol | -6.967 kcal/M | – | -0.66 kcal/M | -7.634 kcal/M | –
14 | COC(=O)C1=C(C)N=C(C)/C(=C(\O)OC)C1c1ccc(Cl)cc1 (stereo in doubt; form 1) | -9.2 kcal/mol | -8.209 kcal/M | -8.964 kcal/M | – | – | –
15 | COC(=O)C1=C(C)N=C(C)/C(=C(\O)OC)C1c1cccc(C#N)c1 (stereo in doubt; form 2) | -10.65 kcal/mol | -11.84 kcal/M | – | – | – | –

The next lines start with results.

Row | Delta Gsolv | Binding energy [1] | Binding energy [2] | Binding energy [3] | Binding energy [5] | SMILES | Binding energy [4]
16 | -7.993 kcal/mol | -11.88 kcal/M | – | – | – | COC(=O)C1=C(C)N=C(C)/C(=C(\O)OC)C1c1ccccc1C (stereo not drawn) | –
17 | -10.468 kcal/mol | -10.735 kcal/M | – | – | – | COC(=O)C1=C(C)N=C(C)/C(=C(\O)OC)C1c1ccccc1OC (stereo not drawn) | –
18 | -9.427 kcal/mol | -10.175 kcal/M | – | – | – | COC(=O)C1=C(C)N=C(C)/C(=C(\O)OC)C1c1ccc(F)cc1 (stereo not drawn) | –
19 | -8.407 kcal/mol | -9.93 kcal/M | – | – | – | COC(=O)C1=C(C)N=C(C)/C(=C(\O)OC)C1c1cccc(C)c1 (stereo not drawn) | –
20 | -14.696 kcal/mol | -9.571 kcal/M | -10.474 kcal/M | – | – | COC(=O)C1=C(C)NC(C)=C([N+](=O)[O-])C1c1ccccc1OC(F)F (stereo not drawn) | –
21 | -9.56 kcal/mol | -11.58 kcal/M | – | – | – | COC(=O)C1=C(C)N=C(C)/C(=C(\O)OC)C1c1cccc(F)c1 (stereo not drawn) | –
22 | -8.94 kcal/mol | -12.685 kcal/M | – | – | – | COC(=O)C1=C(C)N=C(C)/C(=C(/O)OC)C1c1cccc(Cl)c1 (stereo not drawn) | –
23 | -9.256 kcal/mol | -14.308 kcal/M | – | – | – | COC(=O)C1=C(C)N=C(C)/C(=C(\O)OC)C1c1ccccc1Br (stereo not drawn) | –
24 | -14.543 kcal/mol | -9.26 kcal/M | -10.564 kcal/M | – | – | CO/C(O)=C1\C(C)=NC(C)=C([N+](=O)[O-])C1c1ccccc1OC(F)F (stereo not drawn) | –
25 | -10.096 kcal/mol | -7.86 kcal/M | -8.28 kcal/M | – | – | CC1=CC(c2ccccc2OC(F)F)C([N+](=O)[O-])=C(C)N1 (stereo in doubt; form 2) | –
26 | -9.18 kcal/mol | -14.731 kcal/M | – | – | – | COC(=O)C1=C(C)N=C(C)/C(=C(\O)OC)C1c1ccccc1I (stereo not drawn) | –
27 | -9.26 kcal/mol | -13.34 kcal/M | – | – | – | COC(=O)C1=C(C)N=C(C)/C(=C(\O)OC)C1c1ccccc1Cl (stereo not drawn) | –
28 | -16.994 kcal/mol | -7.82 kcal/M | -8.66 kcal/M | – | – | CC1=C([N+](=O)[O-])C(c2ccccc2OC(F)F)C([N+](=O)[O-])=C(C)N1 | –
29 | -11.269 kcal/mol | -7.422 kcal/M | -7.783 kcal/M | – | – | CC1=CC(c2ccccc2OC(F)F)C([N+](=O)[O-])=C(C)N1 (stereo in doubt; form 1) | –
30 | -9.804 kcal/mol | -11.512 kcal/M | – | – | – | COC(=O)C1=C(C)N=C(C)/C(=C(\O)OC)C1c1ccccc1F (stereo not drawn) | –
31 | -9.74 kcal/mol | -12.522 kcal/M | – | – | – | COC(=O)C1=C(C)N=C(C)/C(=C(\O)OC)C1c1ccccc1C#N (stereo not drawn) | –
